Results published in ChEMBL document CHEMBL1138645, “Carbonic anhydrase inhibitors. Interaction of isozymes I, II, IV, V, and IX with phosphates, carbamoyl phosphate, and the phosphonate antiviral drug foscarnet” (Bioorg Med Chem Lett, 2004).

Experiments:
[1] = biological target: Carbonic anhydrase 2 (Homo sapiens, UniProt P00918); assay: Inhibition constant of anion against human carbonic anhydrase isozyme hCA II
[2] = biological target: Carbonic anhydrase V (Homo sapiens, UniProt Q9Y2D0+P35218); assay: Inhibition constant of anion against human carbonic anhydrase isozyme hCA V; assay type: protein assay
[3] = biological target: T1, Carbonic anhydrase 1 (Homo sapiens, UniProt P00915); assay: Inhibition constant of anion against human carbonic anhydrase isozyme hCA I
T1 sequence (P00915 whole entry): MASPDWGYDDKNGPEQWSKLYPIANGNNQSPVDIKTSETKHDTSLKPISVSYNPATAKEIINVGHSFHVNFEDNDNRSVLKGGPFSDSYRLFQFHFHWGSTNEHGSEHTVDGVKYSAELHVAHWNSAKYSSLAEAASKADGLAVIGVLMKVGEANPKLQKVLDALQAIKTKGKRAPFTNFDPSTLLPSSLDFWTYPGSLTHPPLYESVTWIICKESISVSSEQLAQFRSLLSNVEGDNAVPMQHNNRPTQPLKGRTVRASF

[4] = biological target: Carbonic anhydrase 9 (Homo sapiens, UniProt Q16790); assay: Inhibition constant of anion against human carbonic anhydrase isozyme hCA IX
[5] = biological target: Carbonic anhydrase 4 (Homo sapiens, UniProt P22748); assay: Inhibition constant of anion against human carbonic anhydrase isozyme hCA IV
Carbonic anhydrase 4, sequence (P22748 whole entry): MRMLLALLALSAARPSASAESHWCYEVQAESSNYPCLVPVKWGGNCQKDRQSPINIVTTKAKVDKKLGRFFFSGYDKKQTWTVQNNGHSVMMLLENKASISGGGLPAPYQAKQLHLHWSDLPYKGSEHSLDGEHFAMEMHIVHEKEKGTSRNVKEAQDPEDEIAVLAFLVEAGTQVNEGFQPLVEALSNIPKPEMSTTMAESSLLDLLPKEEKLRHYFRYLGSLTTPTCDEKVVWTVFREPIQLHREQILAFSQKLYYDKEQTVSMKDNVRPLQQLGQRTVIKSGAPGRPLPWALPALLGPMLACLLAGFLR

[6] = biological target: T1, Carbonic anhydrase 1; assay: Inhibition constant of anion against human carbonic anhydrase isozyme hCA I; A = activator

| SMILES | Ki [1] | Ki [2] | Ki [3] | Ki [4] | Ki [5] | Ki [6] |
| --- | --- | --- | --- | --- | --- | --- |
| NC(=O)OP(=O)([O-])[O-].[Na+].[Na+] [CARBAMOYL PHOSPHATE; DI SODIUM] | 0.31 mM | 0.0085 mM | 9.4 µM | 3.06 mM | 0.0099 mM | – |
| O=C([O-])P(=O)([O-])[O-].[Na+].[Na+].[Na+] [FOSCARNET SODIUM] | 14.2 mM | 41.7 mM | – | 2.21 mM | 0.82 mM | Activator |
| O=C([O-])O.[Na+] [SODIUM BICARBONATE] | – | 82 mM | – | 13 mM | 6.6 mM | – |
| O=C([O-])[O-].[Na+].[Na+] [SODIUM CARBONATE] | – | 95 mM | – | – | 5.7 mM | – |
| O=C[O-].[Na+] [SODIUM FORMATE] | 24 mM | 9.97 mM | – | 1.22 mM | – | Activator |
| O=P([O-])([O-])O.[Na+].[Na+] [SODIUM PHOSPHATE, DIBASIC, ANHYDROUS] | – | 4.49 mM | – | – | – | Activator |
| O=P([O-])(O)O.[Na+] [SODIUM PHOSPHATE, MONOBASIC] | – | 3.3 mM | – | – | – | Activator |
